Results from PubChem BioAssay (NCI).
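Tested at 5 concentrations; 48 h exposure; 96-well plates; endpoints linearly interpolated, else capped at highest concentration. The concentration for full growth arrest is given as TGI.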

Key:
Assay in all cases: NCI anticancer screen, dose series, 48 h
SNB-75 CNS = system: SNB-75 CNS
COLO 205 colon = system: COLO 205 colon
KM12 colon = system: KM12 colon
MDA-MB-435 = system: MDA-MB-435
ACHN renal = system: ACHN renal
786-0 renal = system: 786-0 renal
SF-268 CNS = system: SF-268 CNS
HCC-2998 colon = system: HCC-2998 colon
U251 CNS = system: U251 CNS
TK-10 renal = system: TK-10 renal
MDA-MB-231 breast = system: MDA-MB-231 breast
UACC-257 melanoma = system: UACC-257 melanoma
MOLT-4 leukemia = system: MOLT-4 leukemia
HT29 colon = system: HT29 colon
DU-145 prostate = system: DU-145 prostate
HCT-15 colon = system: HCT-15 colon
HOP-62 NSCLC = system: HOP-62 NSCLC
OVCAR-3 ovarian = system: OVCAR-3 ovarian
NCI-H226 lung = system: NCI-H226 lung

Row | Structure (SMILES) | TGI (SNB-75 CNS) [µM] | TGI (COLO 205 colon) [µM] | TGI (KM12 colon) [µM] | TGI (MDA-MB-435) [µM] | TGI (ACHN renal) [µM] | TGI (786-0 renal) [µM] | TGI (SF-268 CNS) [µM] | TGI (HCC-2998 colon) [µM] | TGI (U251 CNS) [µM] | TGI (TK-10 renal) [µM] | TGI (MDA-MB-231 breast) [µM] | TGI (UACC-257 melanoma) [µM] | TGI (MOLT-4 leukemia) [µM] | TGI (HT29 colon) [µM] | TGI (DU-145 prostate) [µM] | TGI (HCT-15 colon) [µM] | TGI (HOP-62 NSCLC) [µM] | TGI (OVCAR-3 ovarian) [µM] | TGI (NCI-H226 lung) [µM]
1 | C/C1=C\CC[C@@]2(C)O[C@@H]2[C@H]2OC(=O)C(C)C2C[C@H]1O (stereo not given in full) | > 100 | > 100 | > 100 | > 100 | > 100 | > 100 | > 100 | > 100 | > 100 | > 100 | > 100 | > 100 | > 100 | > 100 | > 100 | > 100 | – | – | –
2 | Nc1ccc(C(=O)NN2C(=O)C(Cl)C2c2ccccc2O)cc1 (stereo not given) | > 100 | > 100 | > 100 | – | > 100 | > 100 | > 100 | 98.5 | > 100 | > 100 | – | > 100 | > 100 | > 100 | – | > 100 | > 100 | > 100 | > 100
3 | O=Cc1ccc2c(c1)CC1(C2)Cc2ccc(C=O)cc2C1 | > 100 | 70.9 | 60.4 | 6.15 | 62.1 | 32 | 44.6 | > 91.8 | 41.7 | 65 | 34.1 | 40.5 | 7.11 | 53.6 | > 100 | > 46.6 | 37.2 | 34.1 | 62.6
4 | CC1=[N+]([O-])C(C)(C)N(O)C1(C)C | > 100 | > 100 | > 100 | > 100 | > 100 | > 100 | > 100 | > 100 | > 100 | > 100 | > 100 | – | > 100 | > 100 | > 100 | > 100 | > 100 | > 100 | > 100
5 | O=c1[nH]n(Cc2ccccc2CCl)c2ccc([N+](=O)[O-])cc12 | – | 62.5 | > 100 | > 100 | > 100 | > 100 | > 100 | 42.4 | > 100 | > 100 | > 100 | > 100 | 90.8 | > 100 | > 100 | > 100 | > 100 | > 100 | > 100
6 | O=C(O)CCSc1nnc(COc2ccc(Cl)cc2)n1-c1ccccc1 | > 100 | > 100 | > 100 | > 100 | > 100 | > 100 | > 100 | > 100 | > 100 | > 100 | > 100 | > 100 | > 100 | > 100 | > 100 | > 100 | > 100 | > 100 | > 100
7 | O=C(Nc1ccccc1)C(=O)C(C(=O)c1ccccc1)C(c1ccccc1)c1ccccc1 (stereo not given) | > 10 | > 10 | – | > 10 | – | > 10 | > 10 | > 10 | – | > 10 | > 10 | > 10 | > 10 | > 10 | > 10 | > 10 | > 10 | – | –
8 | CC1=CCC[C@]2(C)C1=CC(=O)O[C@H]2c1ccoc1 | > 100 | > 100 | > 100 | > 100 | > 100 | > 100 | > 100 | > 100 | > 100 | > 100 | > 100 | > 100 | > 100 | > 100 | > 100 | > 100 | > 100 | > 100 | > 100
9 | O=S1c2ccc(Cl)cc2CC(SSC2Cc3cc(Cl)ccc3S(=O)c3ccccc32)c2ccccc21 (stereo not given) | > 100 | > 100 | > 100 | – | > 100 | > 100 | > 100 | > 100 | > 100 | > 100 | – | > 100 | > 100 | > 100 | – | – | > 100 | > 100 | > 100
10 | CN(CCO)c1nc2c(c(=O)[nH]1)CNCC2 | > 100 | > 100 | > 100 | – | > 100 | > 100 | > 100 | > 100 | > 100 | > 100 | – | > 100 | > 100 | > 100 | – | > 100 | > 100 | > 100 | > 100
11 | COc1ccc(C(CC(=O)c2ccccc2)C(=O)c2ccc3c(c2)OCO3)cc1 (stereo not given) | > 100 | > 100 | > 100 | > 100 | > 100 | > 100 | > 100 | > 100 | > 100 | > 100 | > 100 | > 100 | > 100 | – | > 100 | > 100 | > 100 | – | > 100
12 | O=C(CCCN1CC=C(n2c(=O)[nH]c3ccccc32)CC1)c1cccs1 | > 100 | > 100 | > 100 | > 100 | > 100 | > 100 | > 100 | > 100 | > 100 | > 100 | > 100 | > 100 | > 100 | > 100 | > 100 | > 100 | > 100 | > 100 | > 100
13 | Nc1c(Cl)c([N+](=O)[O-])cc2c1OCCCCO2 | 93 | > 100 | > 100 | > 100 | > 100 | > 100 | > 100 | > 100 | 8.48 | > 100 | > 100 | > 100 | > 100 | > 100 | > 100 | > 100 | > 100 | > 100 | > 100
14 | C=CC1(c2ccc(Br)cc2)OCCCO1 | > 100 | > 100 | > 100 | > 100 | > 100 | > 100 | > 100 | > 100 | > 100 | > 100 | > 100 | > 100 | > 100 | > 100 | > 100 | > 100 | > 100 | > 100 | > 100
15 | CSC(=N)N1N=C2c3ccccc3CC[C@@H]2[C@@H]1c1ccccc1 | – | 26.6 | 27.9 | – | 50.2 | 25.6 | 49.6 | 29.4 | 31 | 33.5 | – | 35.3 | 35.8 | 23.6 | – | 31 | 32.8 | 36 | 22.6
16 | C/C(=C/CNc1ncnc2c1ncn2CCC#N)CO | > 100 | > 100 | > 100 | > 100 | > 100 | > 100 | > 100 | > 100 | – | > 100 | > 100 | > 100 | > 100 | > 100 | > 100 | – | > 100 | > 100 | > 100
17 | CCOC(=O)C1C(c2ccc([N+](=O)[O-])cc2)NC(c2ccc([N+](=O)[O-])cc2)C(C(=O)OC)S1(=O)=O (stereo not given) | > 100 | > 100 | > 100 | – | > 100 | > 100 | > 100 | > 100 | > 100 | > 100 | – | > 100 | > 100 | > 100 | – | > 100 | > 100 | > 100 | > 100
18 | COc1cc(-c2c(C)c(C)nc(OC)c2C#N)cc(OC)c1OC | > 100 | > 100 | > 100 | – | > 100 | > 100 | > 100 | > 100 | > 100 | > 100 | – | > 100 | > 100 | > 100 | – | > 100 | > 100 | > 100 | > 100
19 | COc1cc(CCCC(O)COc2cccc3c2C2(O)CCCCCC32)cc(OC)c1 (stereo not given) | 30.2 | 5.4 | 34.5 | – | 29.4 | 28.7 | 32.9 | 17.9 | 32.9 | 28.1 | – | 32.5 | 48.2 | 23.9 | – | 34 | 28.7 | – | 33.9
20 | CCCCCCCCCCCCNC1(C)CNCCCNCCNCCCNC1 | 3.15 | 3.2 | 2.89 | – | 3.41 | 3.14 | – | 3.22 | 2.3 | 3.1 | – | 3.19 | 3.05 | 2.95 | – | – | 3.83 | 3.28 | 3.21
21 | C[C@@H]1OC2(O)[C@@H]3CCCN3C(=O)N(Cc3ccccc3)N2C1=O (stereo not given in full) | 88.7 | > 100 | > 100 | > 100 | > 100 | > 100 | > 100 | > 100 | – | > 100 | > 100 | > 100 | > 100 | > 100 | > 100 | > 100 | > 100 | > 100 | > 100
